Assay results published in patent US9175305B2, “Mutant hydroxyphenylpyruvate dioxygenase polypeptides and methods of use” (Syngenta Participations AG, priority 2009, dated 2015).
Where “and” joins values, the source holds several entries; their conditions need not be identical. Equal entries are not always repeated. Where two headings read alike, the source gives them in different places.

What was measured:
HPPD SEQ ID NO:24 = HPPD SEQ ID NO:24 (Avena sativa, UniProt A0ACD5V6K6, DEL109-109/L359M); assay: biochemical; type: binding; conditions: for koff: read-out: koff (k1); for kon: read-out: kon (k2)
Protocol: (§1) On rates (governed by an association rate constant, kon) for the formation of the enzyme: inhibitor complexes, EI and off rates (governed by a dissociation rate constant, koff) were determined by methods known in the art and essentially as described in Hawkes et al. (2001) Proc. Bright. Crop. Prot. Conf. Weeds, 2:563-568 and in PCT Patent App. Pub. No. WO 02/46387).
(§2) For example, on rates were measured by, at zero time, adding ˜60 pmoles HPPD to 50 mM BisTrisPropane buffer at pH7.0 and at 25° C. containing 25 mM Na ascorbate, 4 μg/ml bovine catalase (Sigma, St. Louis, Mo.) and an excess (˜300 pmoles) of ^14C inhibitor in a total assay volume of 425 μl and, at various time points (0-180 s), quenching the radiolabel binding reaction by addition and rapid mixing of 100 μl ‘cold’ 1 mM structure A. Protein samples quenched at different times were then exchanged into 50 mM BisTrisPropane buffer at pH 7.0 containing 0.1M KCl by rapid chromatography down a NAP5 G25 Sephadex column (GE Healthcare Ltd, Buckinghamshire UK) and the amount of ^14C bound to protein fractions quantified in Optiphase scintillant using a Tri-Carb 2900TR scintillation counter (Perkin Elmer, Wellesley, Mass.). The data were fit according to the scheme below in order to derive the value of the apparent second order rate constant, k2, governing the association rate of enzyme and radiolabelled inhibitor. A range of enzyme and inhibitor concentrations were used. […] Further example methods are described in PCT Patent App. Pub. No. WO 02/46387.
(§3) Off rates (k1 in the scheme below) were derived from exchange rate studies where either the test inhibitor, I, or its exchange partner, J were radiolabelled and the data fit according to the scheme below. As noted in Hawkes et al. (2001) Proc. Bright. Crop. Prot. Conf.
(§4) After 30 minutes the exchange reaction was initiated with addition of 100 μl 1 mM ‘cold’ structure A with thorough mixing, and, immediately, 150 μl were withdrawn and loaded onto a NAP5 column, the protein exchanged into 50 mM BisTrisPropane buffer at pH 7.0 containing 0.1M KCl by rapid (<2 min) chromatography down a NAP5 G25 Sephadex column (GE Healthcare Ltd, Buckinghamshire UK) and the amount of ^14C bound to protein measured by Optiphase scintillant using a Tri-Carb 2900TR scintillation counter (Perkin Elmer, Wellesley, Mass.). Further aliquots were removed and measured in the same way at various times over minutes or hours as required in order to determine the exchange kinetics.
(§5) After 30 minutes the reaction vessel was transferred to ice. After a further 10 minutes at ice temperature the exchange reaction was initiated by addition of 100 μl 1 mM Structure A, with thorough mixing, and 150 μl was withdrawn and loaded onto a NAP5 column in a cold room at ˜5-8° C. in order to quantify the amount of radiolabel remaining bound to the protein at various time from the start of exchange at ice temperature.
(§6) Off rates (k1) of HPPD inhibitors that are not available radiolabelled or that present other measurement problems (for example high levels of background non-specific protein-binding which can be measured as radiolabel binding that persists in the presence of high concentrations of ‘cold’ inhibitor) may be measured indirectly. […] Exemplary methods are also described in PCT Patent App. Pub. No. WO 02/46387.

[1] = tested on: soybean event 1 (vector 15764) expressing SEQ ID NO:14; assay: herbicide spray test on soybean events; type: in vivo; conditions: event 1/SEQ#14, V2 growth stage, 14 DAT, average of n=7
Source text: (§7) Each data point represents the average damage score from n=7 replicates.
(§8) These events were used to compare the performance of five 17147 events. Four of these, SF, S8, S7 and S3 had not been preselected for tolerance level (other than to confirm resistance, non-chimerical nature and the presence of the gene) while the remaining event, T0, had been preselected as the most resistant out of five 17147 events in a preliminary field test.
(§9) Plants were in 4×4×4 inch plastic pots and grown under a 15/9 hour light regime (daylight supplemented by artificial light in greenhouses) at a minimum night-time temperature of 18° C. and maximum daytime temperature of 27° C. Soil was regular VBRC mix (1:1 mixture of Vero field soil and Fafard Mix II) where Vero field soil is 98% sand and 2% clay. […] Spray volume was 150 L/ha and the damage scores reflect assessments at 14 DAT.

[2] = tested on: soybean event 2 (vector 15764) expressing SEQ ID NO:14; assay: herbicide spray test on soybean events; type: in vivo; conditions: event 2/SEQ#14, V2 growth stage, 14 DAT, average of n=7
Source text: as §7, §8, §9

[3] = tested on: soybean event S3 (vector 17147) expressing SEQ ID NO:24; assay: herbicide spray test on soybean events; type: in vivo; conditions: event S3/SEQ#24, V2 growth stage, 14 DAT, average of n=7
Source text: as §7, §8, §9

[4] = tested on: soybean event S7 (vector 17147) expressing SEQ ID NO:24; assay: herbicide spray test on soybean events; type: in vivo; conditions: event S7/SEQ#24, V2 growth stage, 14 DAT, average of n=7
Source text: as §7, §8, §9

[5] = tested on: soybean event S8 (vector 17147) expressing SEQ ID NO:24; assay: herbicide spray test on soybean events; type: in vivo; conditions: event S8/SEQ#24, V2 growth stage, 14 DAT, average of n=7
Source text: as §7, §8, §9

[6] = tested on: soybean event SF (vector 17147) expressing SEQ ID NO:24; assay: herbicide spray test on soybean events; type: in vivo; conditions: event SF/SEQ#24, V2 growth stage, 14 DAT, average of n=7
Source text: as §7, §8, §9

[7] = tested on: soybean event T0 (vector 17147) expressing SEQ ID NO:24; assay: herbicide spray test on soybean events; type: in vivo; conditions: event T0/SEQ#24, V2 growth stage, 14 DAT, average of n=7
Source text: as §7, §8, §9

Jack w/t = assay: herbicide spray test on soybean; type: in vivo; conditions: V2 growth stage, 14 DAT, average of n=7
Protocol: as §7, §9

HPPD SEQ ID NO:14 = HPPD SEQ ID NO:14 (Avena sativa, UniProt A0ACD5V6K6, DEL109-109); assay: biochemical; type: binding; conditions: for Kd/Km ratio: HPPD SEQ ID NO:14
Protocol: as §1, §2, §3, §4, §5, §6

HPPD SEQ ID NO:15 = HPPD SEQ ID NO:15 (Avena sativa, UniProt A0ACD5V6K6, DEL109-109/Q298A); assay: biochemical; type: binding; conditions: for koff: read-out: koff (k1)
Protocol: as §1, §2, §3, §4, §5, §6

HPPD SEQ ID NO:18 = HPPD SEQ ID NO:18 (Avena sativa, UniProt A0ACD5V6K6, DEL109-109/I285T); assay: biochemical; type: binding; conditions: for koff: read-out: koff (k1)
Protocol: as §1, §2, §3, §4, §5, §6

HPPD SEQ ID NO:21 = HPPD SEQ ID NO:21 (Avena sativa, UniProt A0ACD5V6K6, DEL109-109/I285V); assay: biochemical; type: binding; conditions: for koff: read-out: koff (k1)
Protocol: as §1, §2, §3, §4, §5, §6

HPPD SEQ ID NO:22 = HPPD SEQ ID NO:22 (Avena sativa, UniProt A0ACD5V6K6, DEL109-109/L256M); assay: biochemical; type: binding; conditions: for koff: read-out: koff (k1)
Protocol: as §1, §2, §3, §4, §5, §6

HPPD SEQ ID NO:23 = HPPD SEQ ID NO:23 (Avena sativa, UniProt A0ACD5V6K6, A242W/DEL109-109); assay: biochemical; type: binding; conditions: for koff: read-out: koff (k1)
Protocol: as §1, §2, §3, §4, §5, §6

[8] = 25° C., direct, radiochemical method, average and individual experiments, read-out: Off rate k1
[9] = 25° C., direct, radiochemical method, average and individual experiments, read-out: On rate k2
[10] = Kd, HPPD variant SEQ ID# 14, 25° C.
[11] = Kd, estimated from on and off rates, 25° C.

Sequence of HPPD SEQ ID NO:18 (A0ACD5V6K6 entry or part of it DEL109-109/I285T): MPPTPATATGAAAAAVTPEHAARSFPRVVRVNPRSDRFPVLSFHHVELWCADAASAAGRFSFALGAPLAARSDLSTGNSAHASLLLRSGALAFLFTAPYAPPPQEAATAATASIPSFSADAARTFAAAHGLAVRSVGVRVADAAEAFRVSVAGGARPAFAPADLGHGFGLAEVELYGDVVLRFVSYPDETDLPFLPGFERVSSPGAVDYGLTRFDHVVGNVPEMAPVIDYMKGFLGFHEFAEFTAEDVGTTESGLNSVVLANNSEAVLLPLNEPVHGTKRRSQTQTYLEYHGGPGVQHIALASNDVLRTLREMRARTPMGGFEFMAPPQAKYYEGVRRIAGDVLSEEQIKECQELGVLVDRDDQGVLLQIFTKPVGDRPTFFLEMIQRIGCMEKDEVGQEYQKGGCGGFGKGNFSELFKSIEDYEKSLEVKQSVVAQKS
Sequence of HPPD SEQ ID NO:24 (A0ACD5V6K6 entry or part of it DEL109-109/L359M): as the sequence (A0ACD5V6K6 entry or part of it DEL109-109/I285T) above, with T284I, L358M counted along it
Sequence of HPPD SEQ ID NO:23 (A0ACD5V6K6 entry or part of it DEL109-109/A242W): as the sequence (A0ACD5V6K6 entry or part of it DEL109-109/I285T) above, with A241W, T284I counted along it
Sequence of HPPD SEQ ID NO:14 (A0ACD5V6K6 entry or part of it DEL109-109): as the sequence (A0ACD5V6K6 entry or part of it DEL109-109/I285T) above, with T284I counted along it
Sequence of HPPD SEQ ID NO:22 (A0ACD5V6K6 entry or part of it DEL109-109/L256M): as the sequence (A0ACD5V6K6 entry or part of it DEL109-109/I285T) above, with L255M, T284I counted along it
Sequence of HPPD SEQ ID NO:21 (A0ACD5V6K6 entry or part of it DEL109-109/I285V): as the sequence (A0ACD5V6K6 entry or part of it DEL109-109/I285T) above, with T284V counted along it
Sequence of HPPD SEQ ID NO:15 (A0ACD5V6K6 entry or part of it DEL109-109/Q298A): as the sequence (A0ACD5V6K6 entry or part of it DEL109-109/I285T) above, with T284I, Q297A counted along it

In the case of CS(=O)(=O)c1cc(C(F)(F)F)ccc1C(=O)c1cnoc1C1CC1 [IFT, isoxaflutole], the “SEQ ID NO:24 superior to SEQ ID NO:14 (in vitro, in particular off rate data)” value (HPPD SEQ ID NO:24) is reported as 2.3 fold, the “% dam.” value ([1]; IFT 420 g/ha) is reported as 26.4% and the “% dam.” value ([2]; IFT 420 g/ha) is reported as 42.5%. For the same compound, the “% dam.” value ([3]; IFT 420 g/ha) was 30%, the “% dam.” value ([4]; IFT 420 g/ha) was 20.7% and the “% dam.” value ([5]; IFT 420 g/ha) was 31.3%. The “% dam.” value ([6]; IFT 420 g/ha) was 40%, the “% dam.” value ([7]; IFT 420 g/ha) was 19.3% and the “% dam.” value (Jack w/t; IFT 420 g/ha) was 96.1%.
With CS(=O)(=O)c1ccc(C(=O)C2C(=O)CCCC2=O)c(Cl)c1COCC(F)(F)F [E, tembotrione] the Kd (HPPD SEQ ID NO:14) was 0.321 nM, the “Off rate k1” value (HPPD SEQ ID NO:14; 25° C., indirect radiochemical method, average and individual experiments) was 5.5e-05 s⁻¹ and 2.85e-05 s⁻¹ and the Kd/Km ratio (HPPD SEQ ID NO:14) was 0.000059. For the same compound, the koff (HPPD SEQ ID NO:14; read-out: Off rate k1, 25° C., indirect radiochemical method, average and individual experiments) was 4.17e-05 s⁻¹, the kon (HPPD SEQ ID NO:14; read-out: On rate k2) was 130000 M⁻¹ s⁻¹ and the “SEQ ID NO:24 superior to SEQ ID NO:14 (in vitro, in particular off rate data)” value (HPPD SEQ ID NO:24; relative to SEQ ID NO:14) was “neutral”. The “% dam.” value ([1]; E 368 g/ha) was 36.4%, the “% dam.” value ([2]; E 368 g/ha) was 52.1% and the “% dam.” value ([3]; E 368 g/ha) was 51.4%. The “% dam.” value ([4]; E 368 g/ha) was 41.4%, the “% dam.” value ([5]; E 368 g/ha) was 80% and the “% dam.” value ([6]; E 368 g/ha) was 97.1%. The “% dam.” value ([7]; E 368 g/ha) was 39.3% and the “% dam.” value (Jack w/t; E 368 g/ha) was 84.3%.
For CS(=O)(=O)c1cc(C(F)(F)F)ccc1C(=O)C(C#N)C(=O)C1CC1 (centres unmarked) [Structure D], the “Off rate k1” value (HPPD SEQ ID NO:14; 25° C., direct, radiochemical method, average and individual experiments) was 4.17e-05 s⁻¹ and 3.75e-05 s⁻¹, the koff (HPPD SEQ ID NO:14; [8]) was 3.96e-05 s⁻¹ and the kon (HPPD SEQ ID NO:14; [9]) was 32000 M⁻¹ s⁻¹. The kon (HPPD SEQ ID NO:14; 25° C., enzyme activity-based method, read-out: On rate, activity-based method) was 32000 M⁻¹ s⁻¹, the Kd/Km ratio (HPPD SEQ ID NO:14) was 0.00023 and the Kd (HPPD SEQ ID NO:14; [10]) was 1.2 nM. It also gave a Kd (HPPD SEQ ID NO:14; [11]) of 1.23 nM, a koff (HPPD SEQ ID NO:14; read-out: koff (k1)) of 3.96e-05 s⁻¹ and a kon (HPPD SEQ ID NO:14; read-out: kon (k2)) of 32000 M⁻¹ s⁻¹. The koff (HPPD SEQ ID NO:15) was 2.37e-05 s⁻¹, the koff (HPPD SEQ ID NO:18) was 3.96e-05 s⁻¹ and the koff (HPPD SEQ ID NO:21) was 3.96e-05 s⁻¹. It also gave a koff (HPPD SEQ ID NO:22) of 2.37e-05 s⁻¹, a koff (HPPD SEQ ID NO:23) of 2.37e-05 s⁻¹ and a Kd (HPPD SEQ ID NO:24) of 2.9 nM. It also gave a koff (HPPD SEQ ID NO:24) of 9.18e-05 s⁻¹ and a kon (HPPD SEQ ID NO:24) of 32000 M⁻¹ s⁻¹.
CCOc1c(S(C)(=O)=O)ccc(C(=O)C2C(=O)CC(C)CC2=O)c1Cl (centres unmarked) [Structure A] was tested, and the koff (HPPD SEQ ID NO:14; [8]) was 1.67e-05 s⁻¹, the kon (HPPD SEQ ID NO:14; [9]) was 85000 M⁻¹ s⁻¹ and the Kd/Km ratio (HPPD SEQ ID NO:14) was 0.000036. For the same compound, the Kd (HPPD SEQ ID NO:14; [10]) was 0.2 nM, the Kd (HPPD SEQ ID NO:14; [11]) was 0.196 nM and the koff (HPPD SEQ ID NO:14; read-out: koff (k1)) was 1.67e-05 s⁻¹. It also gave a kon (HPPD SEQ ID NO:14; read-out: kon (k2)) of 85000 M⁻¹ s⁻¹, a Kd (HPPD SEQ ID NO:15) of 0.95 nM and a koff (HPPD SEQ ID NO:15) of 3.33e-05 s⁻¹. For the same compound, the kon (HPPD SEQ ID NO:15; read-out: kon (k2)) was 35000 M⁻¹ s⁻¹, the Kd (HPPD SEQ ID NO:18) was 0.4 nM and the koff (HPPD SEQ ID NO:18) was 1.67e-05 s⁻¹. The kon (HPPD SEQ ID NO:18; read-out: kon (k2)) was 42000 M⁻¹ s⁻¹, the Kd (HPPD SEQ ID NO:21) was 0.2 nM and the koff (HPPD SEQ ID NO:21) was 1.67e-05 s⁻¹. It also gave a kon (HPPD SEQ ID NO:21; read-out: kon (k2)) of 85000 M⁻¹ s⁻¹, a Kd (HPPD SEQ ID NO:22) of 0.13 nM and a koff (HPPD SEQ ID NO:22) of 1.08e-05 s⁻¹. The kon (HPPD SEQ ID NO:22; read-out: kon (k2)) was 85000 M⁻¹ s⁻¹, the Kd (HPPD SEQ ID NO:23) was 0.33 nM and the koff (HPPD SEQ ID NO:23) was 2.83e-05 s⁻¹. For the same compound, the kon (HPPD SEQ ID NO:23; read-out: kon (k2)) was 85000 M⁻¹ s⁻¹, the Kd (HPPD SEQ ID NO:24) was 0.27 nM and the koff (HPPD SEQ ID NO:24) was 2.3e-05 s⁻¹. The kon (HPPD SEQ ID NO:24) was 85000 M⁻¹ s⁻¹.
